Measurements published in ChEMBL document CHEMBL6182916, “Unexpected Discovery of a Novel Triphenylphosphonium Alkylalcohol That Triggers Cancer Cell Death via Mitophagy and Ferroptosis” (J Med Chem, 2025).
Calls of active or inactive are those of the source. No cut-off for these calls is given here.

Legend:
[1] = Antiproliferative activity against human Osimertinib-resistant HCC827 cell assessed as inhibition of cell growth measured after 72 hrs by MTT assay; format: functional, cell-based
HCC827 [2] = assay: Induction of mitochondrial dysfunction in human HCC827 cells assessed as reduction in glycolytic capacity at 0.125 to 5 uM incubated for 4 hrs by Seahorse XF96 extracellular flux analyzer; format: functional, cell-based; details: dose 0.125-5 µM
BEAS-2B [3] = assay: Induction of mitochondrial dysfunction in human BEAS-2B cells assessed as reduction in glycolytic capacity at 0.125 to 5 uM incubated for 4 hrs by Seahorse XF96 extracellular flux analyzer; format: functional, cell-based; details: dose 0.125-5 µM
BEAS-2B [4] = assay: Induction of mitochondrial dysfunction in human BEAS-2B cells assessed as reduction in glycolytic reserve at 0.125 to 5 uM incubated for 4 hrs by Seahorse XF96 extracellular flux analyzer; format: functional, cell-based; details: dose 0.125-5 µM
HCC827 [5] = assay: Downregulation of VDAC1 expression level in human HCC827 cells incubated for 24 hrs by Western blot analysis; format: functional, cell-based; details: dose 0.25-5 µM
HCC827 [6] = assay: Downregulation of VDAC1 expression level in human HCC827 cells 0.5 uM by Western blot analysis; format: functional, cell-based; details: time 3-24 hrs
HCC827 [7] = assay: Upregulation of PINK1 level in human HCC827 cells at 0.25 to 0.5 uM measured after 24 hrs; format: functional, cell-based; details: dose 0.25-0.5 µM
HEK-293T = assay: Downregulation of TIMM23 expression level in human HEK293T cells; format: functional, cell-based; details: dose 0.25-0.5 µM
HCC827 [8] = assay: Induction of cell cycle arrest in human HCC827 cells assessed as increase in p53 expression level at 0.25 to 5 uM measured after 24 hrs by Western blot analysis; format: functional, cell-based; details: dose 0.25-5 µM
HCC827 [9] = assay: Induction of cell cycle arrest in human HCC827 cells assessed as accumulation of cells at G1 phase at 0.2 uM incubated for 24 hrs by PI staining based flow cytometry analysis (reference value: 66.44%); format: functional
HCC827 [10] = assay: Induction of cell cycle arrest in human HCC827 cells assessed as accumulation of cells at S phase at 0.4 uM incubated for 24 hrs by PI staining based flow cytometry analysis (reference value: 26.41%); format: functional
HCC827 [11] = assay: Induction of ferroptosis in human HCC827 cells assessed as decrease in xCT expression incubated for 24 hrs; format: functional, cell-based; details: dose 0.25-0.5 µM
HCC827 [12] = assay: Induction of apoptosis in human HCC827 cells assessed as viable cells at 0.25 uM measured after 48 hrs by annexin V and PI staining based flow cytometry analysis (reference value: 96.74%); format: functional; details: read-out: Activity
HCC827 [13] = assay: Induction of apoptosis in human HCC827 cells assessed as late apoptotic cells at 0.25 uM measured after 48 hrs by annexin V and PI staining based flow cytometry analysis (reference value: 1.29%); format: functional
HCC827 [14] = assay: Induction of apoptosis in human HCC827 cells assessed as late apoptotic cells at 1 uM measured after 48 hrs by annexin V and PI staining based flow cytometry analysis (reference value: 1.29%); format: functional
HCC827 [15] = assay: Induction of apoptosis in human HCC827 cells assessed as viable cells at 1 uM measured after 24 hrs by annexin V and PI staining based flow cytometry analysis (reference value: 95.10%); format: functional; details: read-out: Activity
HCC827 [16] = assay: Induction of apoptosis in human HCC827 cells assessed as viable cells at 1 uM measured after 48 hrs by annexin V and PI staining based flow cytometry analysis (reference value: 95.10%); format: functional; details: read-out: Activity
HCC827 [17] = assay: Induction of apoptosis in human HCC827 cells assessed as early apoptotic cells at 1 uM measured after 36 hrs by annexin V and PI staining based flow cytometry analysis (reference value: 1.80%); format: functional
HCC827 [18] = assay: Induction of apoptosis in human HCC827 cells assessed as early apoptotic cells at 1 uM measured after 48 hrs by annexin V and PI staining based flow cytometry analysis (reference value: 1.80%); format: functional
HCC827 [19] = assay: Induction of apoptosis in human HCC827 cells assessed as late apoptotic cells at 1 uM measured after 48 hrs by annexin V and PI staining based flow cytometry analysis (reference value: 2.18%); format: functional
HCC827 [20] = assay: Antiproliferative activity against human HCC827 cells assessed as cell viability at 1 uM measured after 48 hrs in presence of ferrostatin-1 by MTT assay relative to control; format: functional; details: read-out: Activity
HCC827 [21] = assay: Downregulation of SDHB expression in human HCC827 cells incubated for 24 hrs by Western blot analysis; format: functional, cell-based; details: dose 0.25-0.5 µM
HCC827 [22] = assay: Downregulation of SDHB expression in human HCC827 cells at 0.25 uM by Western blot analysis; format: functional, cell-based; details: time <= 24.0 hrs
[23] = molecular target: T1, Heat shock protein 75 kDa, mitochondrial (Homo sapiens) (UniProt Q12931); assay: Inhibition of human TRAP1 assessed as fold increase in ATPase activity at 20 uM
T1 sequence (whole entry): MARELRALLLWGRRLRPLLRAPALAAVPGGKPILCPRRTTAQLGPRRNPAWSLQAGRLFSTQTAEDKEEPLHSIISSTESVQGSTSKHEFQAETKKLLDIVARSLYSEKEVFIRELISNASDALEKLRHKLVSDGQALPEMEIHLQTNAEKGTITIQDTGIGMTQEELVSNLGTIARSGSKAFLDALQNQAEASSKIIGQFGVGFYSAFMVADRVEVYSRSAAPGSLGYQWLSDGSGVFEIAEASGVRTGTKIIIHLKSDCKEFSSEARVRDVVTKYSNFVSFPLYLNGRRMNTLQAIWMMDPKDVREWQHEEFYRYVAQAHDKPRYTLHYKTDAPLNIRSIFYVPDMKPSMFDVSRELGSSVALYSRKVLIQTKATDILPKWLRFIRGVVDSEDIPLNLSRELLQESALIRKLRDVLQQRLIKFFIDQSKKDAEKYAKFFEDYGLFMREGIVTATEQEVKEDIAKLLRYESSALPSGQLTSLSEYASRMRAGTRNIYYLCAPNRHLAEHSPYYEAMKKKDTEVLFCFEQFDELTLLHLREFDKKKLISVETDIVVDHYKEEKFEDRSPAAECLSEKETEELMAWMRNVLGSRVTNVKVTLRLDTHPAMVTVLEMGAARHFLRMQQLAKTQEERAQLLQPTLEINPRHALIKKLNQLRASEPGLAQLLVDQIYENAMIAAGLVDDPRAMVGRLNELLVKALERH

HCC827 [24] = assay: Downregulation of […] protein level in human HCC827 cells at 0.25 to 0.5 uM measured after 12 hrs; format: functional, cell-based; details: dose 0.25-0.5 µM
[25] = Toxicity in female Kunming mouse assessed as change in body weight at 70 mg/kg, ip measured every two days for 7 days; format: organism-based; details: in vivo, 168 h, time 7 day
[26] = Toxicity in female Kunming mouse assessed as animal death at 70 mg/kg, ip measured every two days for 7 days; format: organism-based; details: in vivo, 168 h, time 7 day
[27] = Toxicity in female nude mouse assessed as effect om weight loss at 5 to 10 mg/kg, ip measured after 14 days; format: organism-based; details: in vivo, 336 h, dose 5-10 mg/kg, time 14 day
HCC827 [28] = assay: Antitumor activity against human HCC827 cells xenografted in female nude mouse model assessed as reduction in tumor size at 5 to 10 mg/kg, ip measured every two days for 14 days; format: functional, organism-based; details: dose 5-10 mg/kg, time 14.0 day

SMILES: Cc1ccc([P+](CCCCCCCCCCO)(c2ccc(C)cc2)c2ccc(C)cc2)cc1.[Br-]
- IC50 [1]: 230 nM
- Activity (HCC827 [2]): Active
- Activity (BEAS-2B [3]): Minimal_effect
- Activity (BEAS-2B [4]): Minimal_effect
- Activity (HCC827 [5]): Dose-dependent-effect
- Activity (HCC827 [6]): Time-dependent-effect
- Activity (HCC827 [7]): Active
- Activity (HEK-293T): Dose-dependent-effect
- Activity (HCC827 [8]): Active
- Activity (HCC827 [9]): 76.74%
- Activity (HCC827 [10]): 9.39%
- Activity (HCC827 [11]): Dose-dependent-effect
- viability at 0.25 µM (HCC827 [12]): 92.6%
- Activity (HCC827 [13]): 3.3%
- Activity (HCC827 [14]): 9.96%
- viability at 1 µM (HCC827 [15]): 93.6%
- viability at 1 µM (HCC827 [16]): 91.9%
- Activity (HCC827 [17]): 0.18%
- Activity (HCC827 [18]): 5.33%
- Activity (HCC827 [19]): 0.75%
- viability at 1 µM (HCC827 [20]): 51.4%
- Activity (HCC827 [21]): Active
- Activity (HCC827 [22]): Time-dependent-effect
- fold change (FC) [23]: 2
- Activity (HCC827 [24]): Active
- Activity [25]: Toxic
- Activity [26]: Toxic
- Activity [27]: Non-toxic
- Activity (HCC827 [28]): Active
